{"source": "patent US20250130239A1", "about": "“PROTEIN DEGRADER” (University of Dundee, priority 2021, published 2025)", "key": {"[1]": {"test_system": "Brd2, Brd3 and Brd4", "assay": "First generation screen at 1 μM, 6 h: BET protein levels (western blot)", "assay_type": "cell-based, human", "protocol": "Western Blotting. All cells were harvested on ice with RIPA lysis, and extraction buffer (ThermoFisher Scientific, 89901) supplemented with protease inhibitor cocktail (Merck, 11697498001) and Benzonase® Nuclease (Sigma, E1014) before being store at −20° C. prior to use. Total protein quantity was determined using the BCA protein assay (#23225, Pierce, Rockford, Illinois). Protein concentration was determined using the BCA assay (ThermoFisher Scientific, 23225). Samples were then prepared and loaded onto NuPAGE™ 4-12% Bis-Tris Midi gels (ThermoFisher Scientific, WG1403A), followed by the transfer of the proteins onto nitrocellulose membranes (EMD Millipore). […] All western blots were analysed for band intensities using Image Lab from Bio-Rad (LI-COR, Biosciences). The data extracted from these blots were then plotted and analysed using Prism (v. 8.2.0, GraphPad).\nWith this initial library in hand, we set out to evaluate the activity and selectivity of our I-BET-based B&H-PROTACs by treating our heterozygous BromoTag-Brd2 HEK293 cells with 1 μM of compounds 15-17 or 1 μM of control compounds MZP-15 (14), MZ1 (1) and cis-MZ1 for 6 h, which is sufficient time to achieve effective MZ1-induced BET protein degradation (FIG. 4A). Cells were harvested, and the subsequent lysate was analysed via western blot using antibodies against BET proteins; Brd2, Brd3 and Brd4 (FIG. 4A)."}, "[2]": {"test_system": "BRD2 in Bromotag-BRD2 CRISPR knock-in HEK293 cells", "assay": "TMT labeling mass spectrometry proteomics, tagged target", "assay_type": "cell-based, human", "settings": "1 μM, 2 h; >6,621 proteins quantified", "protocol": "(§1) Sample processing, TMT labelling and fractionation. CRISPR modified BromoTag-Brd2 HEK293 cells were seeded 5×10^6 cells on a […] 24 h before treatment. Cells were treated with either DMSO, 1 μM AGB1 or 1 μM cis-AGB1. 2 h post-treatment, the cells were washed twice with PBS. Cells were lysed in 150 μL of 100 mM TEAB, 5% (w/v) SDS. The lysate was sonicated for 10 s and then centrifuged at 15,000 g for 5 min with the supernatant collected post-centrifugation. Samples were then quantified using a micro-BCA protein assay kit (Thermo Fisher Scientific); 300 μg of each sample were then reduced, alkylated and then digested using Strap mini protocol (Protifi) protocol as described by the manufacturer (protifi) with some modification. Samples were double digested with trypsin (1:40) first overnight then for another 6 hrs with the same ratio (1:40) in 50 mM TEAB buffer. Peptides were quantified using a quantitative fluorometric peptide assay (Thermo Fisher Scientific). The samples (90 μg each) were labelled with a TMT 10-plex Isobaric Label Reagent set (Thermo Fisher Scientific) as per the manufacturer's instructions. After labelling, samples were checked for labelling efficiency, then mixed, desalted, and dried in a speed-vac at 30° C. Samples were re-dissolved in 200 μl ammonium formate (10 mM, pH 9.5) and peptides were fractionated using High pH RP Chromatography. […]"}, "[3]": {"molecular_target": "wild-type Brd4^BD2 (Homo sapiens, UniProt O60885)", "settings": "cited from earlier work"}, "[4]": {"test_system": "MV-4-11 cells", "assay": "CellTiter-Glo cell viability assay, MV-4-11", "assay_type": "cell-based, human", "settings": "24 h", "protocol": "Cell Viability Assay. MV-4-11 cells were plated at a density of 2×10^4 cell per well of a 96 well white-bottom plate, and left to grow overnight in 50 μl of IMDM (Invitrogen, arlsebad, CA, USA) supplemented with 10% (v/v) Fetal bovine serum (FBS) (Thermo Fisher, Waltham, MA, USA) and 1% (v/v) penicillin/streptomycin (pen/strep) (#15140122, Thermo Fisher, Waltham, MA, USA) at 37° C., 5% CO2, and 95% humidity. […] These cells were then left to incubate at 37° C., 5% CO2, and 95% humidity for one day prior to undergoing spectrophotometric analysis. 22RV1 cells were plated at a density of 2×10^4 cell per well of a 96 well white-bottom plate, and left to grow overnight in 100 μL of RPMI-1640 (Invitrogen, Carlsebad, CA, USA) supplemented with 10% (v/v) fetal bovine serum (FBS) (Thermo Fisher, Waltham, MA, USA) and 1% (v/v) penicillin/streptomycin (pen/strep) (#15140122, Thermo Fisher, Waltham, MA, USA) at 37° C., 5% CO2, and 95% humidity. […] Plates were subjected to 2 mins on an orbital shaker to encourage lysis and left for a further 5 mins to reach peak luminescence. Luminescence was then recorded on a BMG Labtech PHERAstar luminescence plate reader with recommended settings. Data extracted from this analysis was analysed with Graphpad Prism (v. 8.2.0, GraphPad) and normalized to the DMSO vehicle control. […]"}, "[5]": {"settings": "mice, values obtained from ref., cited from earlier work"}, "[6]": {"test_system": "BRD3, BRD4 or any other endogenous protein", "assay": "TMT labeling mass spectrometry proteomics, off-targets", "assay_type": "cell-based, human", "settings": "1 μM, 2 h; >6,621 proteins quantified", "protocol": "as §1"}}, "note": "Where two headings read alike, the source gives them in different places.", "data": [{"molecule": "COc1ccc2c(c1)C(c1ccc(Cl)cc1)=NC(CC(=O)NCCOCCOCCOCC(=O)N[C@H](C(=O)N1C[C@H](O)C[C@H]1C(=O)NCc1ccc(-c3scnc3C)cc1)C(C)(C)C)c1nnc(C)n1-2", "note": "(stereo partly drawn) [MZP-15 (14), (2S,4R)-1-((2S)-2-(tert-butyl)-17-(6-(4-chlorophenyl)-8-methoxy-1-methyl-4H-benzo[fj][1,2,4]triazolo[4,3-a][1,4]diazepin-4-yl)-4,16-dioxo-6,9,12-trioxa-3,15-diazaheptadecanoyl)-4-hydroxy-N-(4-(4-methylthiazol-5-yl)benzyl)pyrrolidine-2-carboxamide]", "values": [{"measurement": "activity across all three BET family members relative to 1", "setting": "[1]", "value": "significant lower activity"}]}, {"molecule": "CC[C@@H](C(=O)OCCOCCOCCOCC(=O)N[C@H](C(=O)N1C[C@@H](O)C[C@H]1C(=O)NCc1ccc(-c2scnc2C)cc1)C(C)(C)C)[C@@H]1N=C(c2ccc(Cl)cc2)c2c(sc(C)c2C)-n2c(C)nnc21", "note": "[cis-AGB1, (S)-13-((2S,4S)-4-hydroxy-2-((4-(4-methylthiazol-5-yl)benzyl)carbamoyl)pyrrolidine-1-carbonyl)-14,14-dimethyl-11-oxo-3,6,9-trioxa-12-azapentadecyl (R)-2-((S)-4-(4-chlorophenyl)-2,3,9-trimethyl-6H-thieno[3,2-f][1,2,4]triazolo[4,3-a][1,4]diazepin-6-yl)butanoate]", "values": [{"measurement": "BRD2 protein abundance (proteomics)", "setting": "[2]", "value": "No significant changes"}]}, {"molecule": "CC[C@@H](C(=O)OC)[C@@H]1N=C(c2ccc(Cl)cc2)c2c(sc(C)c2C)-n2c(C)nnc21", "note": "[ET-JQ1-OMe]", "values": [{"measurement": "binding to the wild-type domain", "setting": "[3]", "value": "undetectable binding"}]}, {"molecule": "Cc1ncsc1-c1ccc(CNC(=O)[C@@H]2C[C@@H](O)CN2C(=O)[C@@H](NC(=O)COCCOCCOCCNC(=O)C[C@@H]2N=C(c3ccc(Cl)cc3)c3c(sc(C)c3C)-n3c(C)nnc32)C(C)(C)C)cc1", "note": "[MZ1 (1)]", "values": [{"measurement": "EC50", "setting": "[4]", "value": "~20", "unit": "nM"}, {"measurement": "T1/2", "setting": "[5]; IV (5 mg/kg), 5 mg/kg", "value": 1.04, "unit": "h"}, {"measurement": "AUCinf", "setting": "[5]; IV (5 mg/kg)", "value": 4.51, "unit": "µM·h"}, {"measurement": "CL", "setting": "[5]; IV (5 mg/kg)", "value": 19.7, "unit": "mL/min/kg"}, {"measurement": "MRTinf", "setting": "[5]; IV (5 mg/kg)", "value": 20.4, "unit": "min"}, {"measurement": "Vss", "setting": "[5]; IV (5 mg/kg)", "value": 0.38, "unit": "L/kg"}, {"measurement": "T1/2", "setting": "[5]; IV (5 mg/kg), listed as 1, 5 mg/kg", "value": 1.05, "unit": "h"}, {"measurement": "AUCinf", "setting": "[5]; SC (5 mg/kg)", "value": 3.76, "unit": "µM·h"}, {"measurement": "F (%)", "setting": "[5]; SC (5 mg/kg)", "value": 83, "unit": "%"}, {"measurement": "T1/2", "setting": "[5]; SC (5 mg/kg)", "value": 2.95, "unit": "h"}]}, {"molecule": "(S)-13-((2S,4R)-4-hydroxy-2-((4-(4-methylthiazol-5-yl)benzyl)carbamoyl)pyrrolidine-1-carbonyl)-14,14-dimethyl-11-oxo-3,6,9-trioxa-12-azapentadecyl (R)-2-((S)-4-(4-chlorophenyl)-2,3,9-trimethyl-6H-thieno[3,2-f][1,2,4]triazolo[4,3-a][1,4]diazepin-6-yl)butanoate [AGB1 (46)]", "values": [{"measurement": "depletion of BRD3, BRD4 or any other endogenous protein (proteomics)", "setting": "[6]", "value": "no detectable depletion"}, {"measurement": "BRD2 protein abundance (proteomics)", "setting": "[2]", "value": "most significantly degraded"}]}]}
